In PMC12819154, “High-throughput peptide-centric local stability assay extends protein–ligand identification to membrane proteins, tissues and bacteria” (Nature Structural & Molecular Biology, 2025):

Legend:
Type in all cases: biochemical
GuaC = molecular target: T1, GuaC (Escherichia coli, UniProt P60560); assay: HT-PELSA limited trypsin proteolysis MS, dose-response; details: desalted E. coli lysate, Mg2+ (10 mM MgCl2 added), 25 °C, 30 min; allosteric
T1 construct: endogenous full-length protein in desalted E. coli lysate
T1 sequence (P60560 1-347): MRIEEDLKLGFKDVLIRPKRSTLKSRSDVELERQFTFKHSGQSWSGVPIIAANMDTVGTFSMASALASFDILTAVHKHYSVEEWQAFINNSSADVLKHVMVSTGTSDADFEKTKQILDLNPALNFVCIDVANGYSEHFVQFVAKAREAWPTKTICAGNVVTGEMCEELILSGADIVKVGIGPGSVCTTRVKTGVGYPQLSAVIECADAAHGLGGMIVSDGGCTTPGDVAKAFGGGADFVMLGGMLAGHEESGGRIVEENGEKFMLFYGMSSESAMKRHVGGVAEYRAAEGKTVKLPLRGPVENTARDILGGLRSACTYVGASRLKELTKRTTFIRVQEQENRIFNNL

dacB = molecular target: T2, dacB (Escherichia coli, UniProt P24228); assay: HT-PELSA limited trypsin proteolysis MS, single concentration; details: crude E. coli lysate, 10 μM ampicillin, 25 °C, 30 min
T2 construct: endogenous protein in crude E. coli lysate

mrcB = molecular target: T3, mrcB (Escherichia coli, UniProt P02919); assay: as above; details: crude E. coli lysate, 10 μM ampicillin, 25 °C, 30 min; C-terminal transpeptidase domain
T3 construct: endogenous membrane protein in crude E. coli lysate
T3 sequence (P02919 1-844): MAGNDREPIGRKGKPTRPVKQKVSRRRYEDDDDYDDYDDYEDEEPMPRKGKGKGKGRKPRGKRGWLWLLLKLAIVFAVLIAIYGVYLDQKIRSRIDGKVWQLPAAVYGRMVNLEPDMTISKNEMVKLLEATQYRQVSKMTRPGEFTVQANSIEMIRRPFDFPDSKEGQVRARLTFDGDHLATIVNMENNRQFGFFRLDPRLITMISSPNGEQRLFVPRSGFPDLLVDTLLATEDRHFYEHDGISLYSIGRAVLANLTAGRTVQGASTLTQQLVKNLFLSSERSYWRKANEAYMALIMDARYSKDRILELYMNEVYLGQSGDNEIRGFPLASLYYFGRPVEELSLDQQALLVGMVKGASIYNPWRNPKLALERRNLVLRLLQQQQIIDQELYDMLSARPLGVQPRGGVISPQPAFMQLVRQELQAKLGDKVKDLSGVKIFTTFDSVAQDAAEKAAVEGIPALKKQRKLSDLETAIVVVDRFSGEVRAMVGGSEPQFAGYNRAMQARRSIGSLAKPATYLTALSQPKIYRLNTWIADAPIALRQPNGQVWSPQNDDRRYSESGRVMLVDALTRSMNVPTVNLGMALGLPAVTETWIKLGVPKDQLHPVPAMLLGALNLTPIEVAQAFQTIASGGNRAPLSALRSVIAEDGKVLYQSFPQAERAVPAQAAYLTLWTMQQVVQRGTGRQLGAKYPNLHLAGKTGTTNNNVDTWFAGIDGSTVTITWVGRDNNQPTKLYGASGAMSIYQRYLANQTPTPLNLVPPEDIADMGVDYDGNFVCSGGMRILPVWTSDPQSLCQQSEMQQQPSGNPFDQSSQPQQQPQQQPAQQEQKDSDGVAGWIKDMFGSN

ftsI = molecular target: T4, ftsI (Escherichia coli, UniProt P0AD68); assay: as above; details: crude E. coli lysate, 10 μM ampicillin, 25 °C, 30 min
T4 construct: endogenous membrane protein in crude E. coli lysate
T4 sequence (P0AD68 1-577): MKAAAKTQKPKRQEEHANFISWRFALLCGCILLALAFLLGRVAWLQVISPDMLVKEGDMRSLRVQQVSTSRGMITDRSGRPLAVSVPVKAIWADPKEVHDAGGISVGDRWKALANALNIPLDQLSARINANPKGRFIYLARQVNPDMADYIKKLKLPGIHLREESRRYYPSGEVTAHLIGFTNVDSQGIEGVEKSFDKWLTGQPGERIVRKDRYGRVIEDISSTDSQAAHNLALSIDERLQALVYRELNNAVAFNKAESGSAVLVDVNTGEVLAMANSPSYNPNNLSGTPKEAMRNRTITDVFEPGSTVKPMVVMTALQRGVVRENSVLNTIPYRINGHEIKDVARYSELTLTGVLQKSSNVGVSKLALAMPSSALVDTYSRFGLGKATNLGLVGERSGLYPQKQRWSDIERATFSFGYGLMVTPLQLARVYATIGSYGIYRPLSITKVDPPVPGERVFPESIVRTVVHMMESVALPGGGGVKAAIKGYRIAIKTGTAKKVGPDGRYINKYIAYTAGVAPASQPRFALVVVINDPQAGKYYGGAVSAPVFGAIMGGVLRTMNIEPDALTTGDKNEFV

mrcA = molecular target: T5, mrcA (Escherichia coli, UniProt P02918); assay: as above; details: crude E. coli lysate, 10 μM ampicillin, 25 °C, 30 min; C-terminal transpeptidase domain
T5 construct: endogenous membrane protein in crude E. coli lysate
T5 sequence (P02918 1-850): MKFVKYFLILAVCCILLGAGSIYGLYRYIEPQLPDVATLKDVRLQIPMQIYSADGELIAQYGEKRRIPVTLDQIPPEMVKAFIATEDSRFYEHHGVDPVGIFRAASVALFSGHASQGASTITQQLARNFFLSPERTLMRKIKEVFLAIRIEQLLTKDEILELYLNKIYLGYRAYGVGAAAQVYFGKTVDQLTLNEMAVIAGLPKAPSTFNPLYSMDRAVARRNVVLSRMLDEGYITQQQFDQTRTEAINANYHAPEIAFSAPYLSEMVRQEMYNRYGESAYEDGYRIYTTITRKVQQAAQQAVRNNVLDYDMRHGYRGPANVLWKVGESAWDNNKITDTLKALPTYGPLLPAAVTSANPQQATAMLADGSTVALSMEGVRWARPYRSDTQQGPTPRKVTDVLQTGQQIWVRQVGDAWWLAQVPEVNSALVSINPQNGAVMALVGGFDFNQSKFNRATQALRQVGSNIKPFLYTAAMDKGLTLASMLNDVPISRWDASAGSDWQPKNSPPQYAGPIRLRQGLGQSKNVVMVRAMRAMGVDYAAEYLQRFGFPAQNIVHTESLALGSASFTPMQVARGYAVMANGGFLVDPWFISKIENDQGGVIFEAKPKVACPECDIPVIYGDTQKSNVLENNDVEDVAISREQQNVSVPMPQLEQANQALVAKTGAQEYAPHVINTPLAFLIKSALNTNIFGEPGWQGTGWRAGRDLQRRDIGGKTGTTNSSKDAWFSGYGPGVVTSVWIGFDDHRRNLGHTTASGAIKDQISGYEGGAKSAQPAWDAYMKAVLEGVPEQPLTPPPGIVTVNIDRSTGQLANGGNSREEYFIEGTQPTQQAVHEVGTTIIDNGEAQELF

pbpG = molecular target: T6, pbpG (Escherichia coli, UniProt P0AFI5); assay: as above; details: crude E. coli lysate, 10 μM ampicillin, 25 °C, 30 min
T6 construct: endogenous protein in crude E. coli lysate
T6 sequence (P0AFI5 26-310): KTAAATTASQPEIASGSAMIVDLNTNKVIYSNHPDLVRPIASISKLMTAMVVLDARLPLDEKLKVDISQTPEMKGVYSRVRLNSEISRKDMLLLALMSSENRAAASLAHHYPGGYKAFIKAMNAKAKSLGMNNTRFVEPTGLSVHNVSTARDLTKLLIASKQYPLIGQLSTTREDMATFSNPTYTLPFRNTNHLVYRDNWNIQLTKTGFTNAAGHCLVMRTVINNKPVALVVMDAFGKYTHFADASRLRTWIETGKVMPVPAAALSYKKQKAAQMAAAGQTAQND

α subunit Prkaa2 of Ampk = molecular target: T7, α subunit Prkaa2 of Ampk (Mus musculus, UniProt Q8BRK8); assay: HT-PELSA limited trypsin proteolysis MS, dose-response; details: mouse heart lysate in PBS, 25 °C, 30 min, 0.2 nM-20 μM
T7 construct: endogenous catalytic subunit of AMPK in mouse heart lysate

Csn1ke = molecular target: T8, Csn1ke (Mus musculus, UniProt Q9JMK2); assay: as above; details: mouse heart lysate in PBS, 25 °C, 30 min, 0.2 nM-20 μM
T8 construct: gene Csnk1e; endogenous protein in mouse heart lysate; printed Csn1ke read as Csnk1e
T8 sequence (Q9JMK2 1-416): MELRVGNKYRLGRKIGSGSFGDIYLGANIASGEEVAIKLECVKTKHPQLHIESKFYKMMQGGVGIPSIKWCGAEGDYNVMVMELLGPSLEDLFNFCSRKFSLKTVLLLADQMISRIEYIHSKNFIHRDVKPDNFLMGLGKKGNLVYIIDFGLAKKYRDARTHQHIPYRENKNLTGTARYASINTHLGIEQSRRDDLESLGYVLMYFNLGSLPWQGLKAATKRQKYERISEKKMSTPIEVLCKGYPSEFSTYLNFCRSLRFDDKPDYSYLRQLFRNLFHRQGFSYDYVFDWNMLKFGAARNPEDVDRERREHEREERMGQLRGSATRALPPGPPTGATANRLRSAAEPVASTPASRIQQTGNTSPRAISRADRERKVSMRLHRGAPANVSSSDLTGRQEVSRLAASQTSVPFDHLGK

T2 sequence (P24228 21-477): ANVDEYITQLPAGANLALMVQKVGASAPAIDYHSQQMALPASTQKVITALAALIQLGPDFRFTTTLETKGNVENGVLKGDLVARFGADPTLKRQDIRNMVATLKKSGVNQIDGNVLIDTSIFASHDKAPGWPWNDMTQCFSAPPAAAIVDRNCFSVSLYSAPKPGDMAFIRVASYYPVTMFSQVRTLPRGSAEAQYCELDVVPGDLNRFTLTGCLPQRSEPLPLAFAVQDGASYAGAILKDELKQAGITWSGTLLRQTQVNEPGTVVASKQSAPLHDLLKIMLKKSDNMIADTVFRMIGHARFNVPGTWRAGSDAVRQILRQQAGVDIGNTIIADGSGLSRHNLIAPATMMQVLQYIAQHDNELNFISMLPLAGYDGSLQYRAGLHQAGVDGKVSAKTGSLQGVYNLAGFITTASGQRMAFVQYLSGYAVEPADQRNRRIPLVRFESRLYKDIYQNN
T7 sequence (Q8BRK8 whole entry): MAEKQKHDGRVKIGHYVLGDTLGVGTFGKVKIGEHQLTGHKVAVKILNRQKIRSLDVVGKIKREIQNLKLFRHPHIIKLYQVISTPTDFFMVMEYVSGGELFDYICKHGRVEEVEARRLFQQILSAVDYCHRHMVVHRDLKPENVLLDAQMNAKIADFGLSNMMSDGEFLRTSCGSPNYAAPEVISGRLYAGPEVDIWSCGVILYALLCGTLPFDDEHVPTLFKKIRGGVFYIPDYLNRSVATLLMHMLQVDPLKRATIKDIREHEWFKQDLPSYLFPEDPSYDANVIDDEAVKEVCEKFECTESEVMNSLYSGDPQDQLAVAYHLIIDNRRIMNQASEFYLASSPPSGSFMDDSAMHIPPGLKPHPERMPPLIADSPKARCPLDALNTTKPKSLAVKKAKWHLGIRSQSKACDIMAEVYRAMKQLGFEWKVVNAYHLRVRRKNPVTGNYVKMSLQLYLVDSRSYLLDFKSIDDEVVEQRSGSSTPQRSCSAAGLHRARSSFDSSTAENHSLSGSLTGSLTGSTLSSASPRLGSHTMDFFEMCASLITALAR

## Nc1ncnc2c1ncn2[C@@H]1O[C@H](COP(=O)(O)OP(=O)(O)OP(=O)(O)O)[C@@H](O)[C@H]1O [ATP]
GuaC
  pEC50: Among the non-annotated ATP binders, we identify GuaC

## CC1(C)S[C@@H]2[C@H](NC(=O)[C@H](N)c3ccccc3)C(=O)N2[C@H]1C(=O)O [ampicillin]
dacB
  HT-PELSA limited trypsin proteolysis MS, single concentration: HT-PELSA identified five known targets of ampicillin (mrcA, mrcB, ftsI, dacB and pbpG
mrcB
  HT-PELSA limited trypsin proteolysis MS, single concentration: HT-PELSA identified five known targets of ampicillin (mrcA, mrcB, ftsI, dacB and pbpG
ftsI
  HT-PELSA limited trypsin proteolysis MS, single concentration: HT-PELSA identified five known targets of ampicillin (mrcA, mrcB, ftsI, dacB and pbpG
mrcA
  HT-PELSA limited trypsin proteolysis MS, single concentration: HT-PELSA identified five known targets of ampicillin (mrcA, mrcB, ftsI, dacB and pbpG
pbpG
  HT-PELSA limited trypsin proteolysis MS, single concentration: HT-PELSA identified five known targets of ampicillin (mrcA, mrcB, ftsI, dacB and pbpG

## CCN(CC)CCNC(=O)c1c(C)[nH]c(/C=C2\C(=O)Nc3ccc(F)cc32)c1C [sunitinib]
α subunit Prkaa2 of Ampk
  pEC50: the α subunit Prkaa2 of Ampk, Camk2g, Csn1ke and Csnk1g2
Csn1ke
  pEC50: the α subunit Prkaa2 of Ampk, Camk2g, Csn1ke and Csnk1g2
